{"source": "patent US12122821B2", "about": "“Regulation of glucose metabolism using anti-CGRP antibodies” (H. LUNDBECK A/S, priority 2013, dated 2024)", "key": {"Normal rats": {"tested_on": "Normal rats", "assay": "Hyperinsulinemic-euglycemic clamp, whole body glucose fluxes in normal rats (Example 1)", "assay_type": "in vivo, rat", "details": "vs vehicle", "procedure": "To assess the effect on whole body insulin sensitivity, a clamp procedure was performed using 0.3 U/kg/h insulin and ^3H-glucose. Rats were fasted for 6 hours before 180 minutes of perfusion. Steady state was reached after 140 minutes of infusion and the means of glucose infusion rate (GIR), whole body glucose turn over (GTO), hepatic glucose production (HGP), glycolysis, and glycogen synthesis were calculated from 140 min. to 180 min. A bolus of 14-C-2-deoxyglucose was administered 1 hour before the end of the clamp to measure tissue specific glucose utilization.\nThe hyperinsulinemic-euglycemic clamp was performed using ^3H-glucose as a tracer and 0.3 U/kg/h insulin infusion from 02:00 pm (T0) to 05:00 pm (T+3 h). A glucose solution was infused in parallel and the infusion rate was adjusted to reach the steady state (˜100+/−10 mg/dL). Blood glucose was measured from the tip of the tail using glucometers every 10 minutes. Blood was collected (10 μL) from the tip of the tail during the last hour (steady state) and the following parameters were assessed: Glucose infusion rate; Whole body glucose utilization rate; Hepatic glucose production rate; Whole body glycogen and glycolytic rates.\nWhole body Glucose fluxes."}, "[1]": {"tested_on": "Zucker diabetic fatty (ZDF) rat", "assay": "Pancreas insulin and proinsulin content in ZDF rats (Example 3)", "assay_type": "in vivo", "details": "day 28, AB14 60 mg/kg, metformin 200 mg/kg/day, alone or combined, vs vehicle", "procedure": "After 2 hours of food restriction (from 8:00 am to 10:00 am) 80 rats from the study were anesthetized on day 28 with isoflurane. Blood was collected (˜3000 μL from abdominal vein, on K2-EDTA) for the determination of AB14 plasma concentrations. Plasma (3 aliquots of ˜200 μL) was kept at −80° C. until testing. The pancreas tissue was then excised. Rats were euthanized by incision of the abdominal vein and aorta.\nEach pancreas was divided into 2 parts (longitudinal cut).\nEach pancreas sample was homogenized in an acid buffer, and insulin and proinsulin content were measured using ELISA kits in the following groups: […]"}, "[2]": {"details": "clamp 0.3 U/kg/h insulin, 140-180 min, Ab14 100 mg/kg i.v., metformin 500 mg/kg p.o."}}}
{"smiles": "CN(C)C(=N)N=C(N)N", "note": "[metformin, reference compound]", "values": [{"measurement": "GIR evolution during clamp", "setting": "Normal rats; Ab14 100 mg/kg i.v., metformin 500 mg/kg p.o.", "value": "significantly increased"}, {"measurement": "increase of glucose infusion rate (GIR)", "setting": "Normal rats; clamp 0.3 U/kg/h insulin, 140-180 min, Ab14 100 mg/kg i.v. 48 h before, metformin 500 mg/kg p.o. 24 h and 4 h before", "value": 27, "unit": "%"}, {"measurement": "increase of glycolysis rate", "setting": "Normal rats; [2]", "value": 43, "unit": "%"}, {"measurement": "increase of whole body glucose turn over (GTO)", "setting": "Normal rats; [2]", "value": 30, "unit": "%"}, {"measurement": "pancreas proinsulin levels", "setting": "[1]", "value": "completely prevented reductions"}, {"measurement": "pancreatic insulin levels", "setting": "[1]", "value": "significantly increased"}]}
